These results are taken from ChEMBL document CHEMBL1201862, “PubChem BioAssay data set” (2004).

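Test compounds were applied to cells in 96-well plates for 48 hours at 5 doses. The concentration for 50% growth inhibition is given as GI50.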 Activity calls are given as the source filed them. No stated cut-off is given here; in the data, active = GI50 up to about 1.1 µM and inactive = higher. *1 amine or outer side, *2 acyl side, *3 side chain or, on linkers, in order; H or OH if unused. Where a SMILES comes first, the peptide text is derived from it. Bridges are numbered along the chain shown (N, C = ends). [ ]: non-standard residue; d: D form. The star is where a group is joined. X36 = O=C(C(CCCCNO[*:3])N[*:1])[*:2]; Fmoc = O=C(OCC1c2ccccc2-c2ccccc21)*

Test systems include PC-3; NCI-H23; K562; NCI/ADR-RES; UACC-62; SF-295; UACC-257; IGROV-1; 786-0; SW-620; T47D; CAKI-1; HCT-116; RPMI-8226; NCI-H460; ACHN; HOP-92; HOP-62; UO-31; SK-OV-3.
Holding throughout (assay): inhibition of tumour cell growth, NCI panel, 48 h

For `CC(=O)Oc1c(-c2ccccc2)sc2ccccc12`, the GI50 in the experiment with PC-3 was 25.5 µM (inactive); in the experiment with NCI-H23 it was 15.1 µM (inactive); in the experiment on K562, 13.9 µM (inactive); in the experiment on NCI/ADR-RES, 18.2 µM (inactive); with UACC-62, 15.7 µM (inactive); with SF-295, 18.6 µM (inactive). Besides, the GI50 is 12.5 µM (inactive) in the experiment with UACC-257; 15.3 µM (inactive) in the experiment on IGROV-1; 15.6 µM (inactive) in the experiment with 786-0; 36.1 µM (inactive) in the experiment on SW-620; 10.7 µM (inactive) in the experiment on T47D; 1.33 µM (inactive) with CAKI-1. Further, the GI50 with HCT-116 is 13.4 µM (inactive); with RPMI-8226, 1.61 µM (inactive); in the experiment on NCI-H460 it was 14.5 µM (inactive); in the experiment on ACHN it was 15.6 µM (inactive); with HOP-92 it was 15.1 µM (inactive); in the experiment on HOP-62, 22.3 µM (inactive). In addition, in the experiment with UO-31, the GI50 was 16.8 µM (inactive).

For the molecule `COc1ccc(OC)c2c1-c1nnnn1CCC2(C)C`, the GI50 in the experiment with PC-3, in the experiment on NCI-H23, in the experiment with K562, in the experiment on NCI/ADR-RES, in the experiment with UACC-62 and with SF-295 was > 100 µM (inactive) each time. Also, the GI50 in the experiment with SK-OV-3, in the experiment on UACC-257, with IGROV-1, in the experiment with 786-0, in the experiment with SW-620 and in the experiment with T47D was > 100 µM (inactive) throughout. The GI50 with HCT-116, in the experiment on RPMI-8226, in the experiment on NCI-H460, with ACHN, with HOP-92 and in the experiment with HOP-62 was > 100 µM (inactive) throughout. Moreover, in the experiment with UO-31, the GI50 was > 100 µM (inactive).

For `CCOC(=O)c1cn(CC)c2cc3c(cc2c1=O)CCS3(=O)=O`, the GI50 in the experiment on PC-3, in the experiment on NCI-H23, in the experiment with K562, in the experiment with NCI/ADR-RES, in the experiment with UACC-62 and in the experiment on SF-295 was > 100 µM (inactive) in each case. In addition, the GI50 in the experiment on SK-OV-3, in the experiment on IGROV-1, with 786-0, with SW-620, in the experiment with T47D and with HCT-116 was > 100 µM (inactive) in each case. Also, the GI50 in the experiment with NCI-H460, with ACHN, with HOP-92, in the experiment on HOP-62 and in the experiment on UO-31 was > 100 µM (inactive) throughout.

With `Cc1cc(O)c2c(c1)C(C1OC(CO)C(O)C(O)C1O)c1cc(O)cc(O)c1C2=O` (stereo unspecified), the GI50 in the experiment on PC-3, with NCI-H23, in the experiment on K562, with NCI/ADR-RES, in the experiment with UACC-62 and in the experiment on SF-295 was > 100 µM (inactive) in each case. Besides, the GI50 in the experiment with SK-OV-3, with UACC-257, in the experiment with IGROV-1, with 786-0, with SW-620 and with T47D was > 100 µM (inactive) in each case. The GI50 with HCT-116, in the experiment on RPMI-8226, in the experiment with NCI-H460, in the experiment with ACHN, in the experiment on HOP-92 and in the experiment with HOP-62 was > 100 µM (inactive) each time. In addition, the GI50 with UO-31 is > 100 µM (inactive).

With `Cc1ccc(OCCn2cc(Nc3ccccc3)c(=O)[nH]c2=O)cc1`, the GI50 in the experiment on PC-3, with NCI-H23, with K562, with NCI/ADR-RES, in the experiment on UACC-62 and in the experiment with SF-295 was > 100 µM (inactive) each time. The GI50 in the experiment with UACC-257, with IGROV-1, in the experiment on 786-0, in the experiment with SW-620, with T47D and in the experiment with CAKI-1 was > 100 µM (inactive) in each case. Besides, the GI50 with HCT-116, in the experiment on RPMI-8226, with NCI-H460, in the experiment on ACHN, in the experiment on HOP-92 and in the experiment with UO-31 was > 100 µM (inactive) throughout.

Consider `CC(C)(CO)NC(=O)Nc1c(C(F)(F)F)cc(-c2ccccc2)[nH]c1=O`, for which the GI50 in the experiment with PC-3, with NCI-H23, with K562, in the experiment on NCI/ADR-RES, in the experiment with UACC-62 and with SF-295 was > 100 µM (inactive) throughout. For the same molecule, the GI50 in the experiment with SK-OV-3, in the experiment with UACC-257, with IGROV-1, in the experiment with 786-0, in the experiment with SW-620 and in the experiment with T47D was > 100 µM (inactive) throughout. In addition, the GI50 with CAKI-1, in the experiment with HCT-116, in the experiment on NCI-H460, in the experiment on ACHN, in the experiment with HOP-92 and in the experiment with HOP-62 was > 100 µM (inactive) throughout. Further, the GI50 in the experiment on UO-31 is > 100 µM (inactive).

`COc1ccc(CC[N+]2(C)COc3cc4oc(=O)cc(C)c4cc3C2)cc1OC` (stereo unspecified): the GI50 was > 100 µM (inactive) in the experiment on PC-3; > 100 µM (inactive) in the experiment with NCI-H23; 2.45 µM (inactive) in the experiment on K562; > 100 µM (inactive) with NCI/ADR-RES; > 100 µM (inactive) with UACC-62; > 100 µM (inactive) in the experiment with SF-295. Besides, the GI50 with SK-OV-3, in the experiment on UACC-257, with IGROV-1, with 786-0, with SW-620 and in the experiment with T47D was > 100 µM (inactive) in each case. Further, the GI50 in the experiment on CAKI-1, in the experiment with HCT-116, with RPMI-8226, in the experiment with ACHN, in the experiment with HOP-92 and in the experiment on HOP-62 was > 100 µM (inactive) throughout. Moreover, the GI50 in the experiment on UO-31 is > 100 µM (inactive).

Consider `N#Cc1sc2c(c1OC(=O)c1cccs1)c(=O)n(-c1ccccc1)c(=S)n2-c1ccccc1`, for which the GI50 in the experiment with PC-3 was 18 µM (inactive); in the experiment with NCI-H23, 25.3 µM (inactive); in the experiment with K562 it was 22 µM (inactive); in the experiment on NCI/ADR-RES, 21.8 µM (inactive); in the experiment on UACC-62, 17.2 µM (inactive); in the experiment on SF-295, 21 µM (inactive). The GI50 in the experiment with SK-OV-3 was 29.6 µM (inactive); with UACC-257 it was 32 µM (inactive); in the experiment on IGROV-1, 19.8 µM (inactive); in the experiment with 786-0, 31.4 µM (inactive); in the experiment with SW-620, 21.8 µM (inactive); in the experiment with T47D, 10.9 µM (inactive). In addition, the GI50 in the experiment with CAKI-1 is 32.4 µM (inactive); in the experiment on HCT-116, 15.2 µM (inactive); in the experiment with RPMI-8226, 18.7 µM (inactive); in the experiment on NCI-H460, 28.2 µM (inactive); with HOP-62, 19.6 µM (inactive); in the experiment on UO-31 it was 16.1 µM (inactive).

On to `NC(=O)CNC(=O)C1CCCN1C(=O)C1CCCCNOC(=O)CCC(NC(=O)OCC2c3ccccc3-c3ccccc32)C(=O)NC(Cc2c[nH]c3ccccc23)C(=O)N1` (stereo unspecified) (Fmoc-EW[X36]PG-NH2; ester 1-3; configuration not given here), for which the GI50 in the experiment on PC-3, in the experiment with NCI-H23, in the experiment with K562, with NCI/ADR-RES, in the experiment with UACC-62 and in the experiment on SF-295 was > 100 µM (inactive) throughout. In addition, the GI50 in the experiment on SK-OV-3 was 63.4 µM (inactive); in the experiment on UACC-257, > 100 µM (inactive); in the experiment with IGROV-1, > 100 µM (inactive); in the experiment on 786-0 it was > 100 µM (inactive); in the experiment on SW-620, > 100 µM (inactive); in the experiment with T47D it was > 100 µM (inactive). Moreover, the GI50 in the experiment with HCT-116, in the experiment on RPMI-8226, in the experiment with NCI-H460, with ACHN, in the experiment with HOP-92 and with HOP-62 was > 100 µM (inactive) throughout. Besides, the GI50 with UO-31 was 24.9 µM (inactive).

Turning to `CNNC1=NS(=O)(=O)c2cc(C)c(Cl)cc2S1`, the GI50 in the experiment on PC-3, with NCI-H23, in the experiment with K562, in the experiment on NCI/ADR-RES, in the experiment with UACC-62 and in the experiment with SF-295 was > 10 µM (inactive) throughout. Also, the GI50 in the experiment on SK-OV-3, in the experiment with UACC-257, in the experiment on IGROV-1, in the experiment with 786-0, in the experiment on SW-620 and in the experiment on T47D was > 10 µM (inactive) in each case. The GI50 in the experiment on CAKI-1, with HCT-116, with RPMI-8226, in the experiment with NCI-H460, in the experiment with ACHN and in the experiment on HOP-62 was > 10 µM (inactive) each time. Further, the GI50 in the experiment with UO-31 was 0.0344 µM (active).
